From patent US9969752B2, “Inhibitors of HIF prolyl hydroxylase” (MERCK SHARP & DOHME CORP., priority 2014, dated 2018)
Read-outs that look alike come from different tables or passages of the source.

Target: T1, Human HIF-PHD2 (Homo sapiens, UniProt Q9GZT9)
T1 construct: FLAG-tagged full length PHD2 expressed in and purified from baculovirus-infected Sf9 cells; FLAG; made in house; host or cells: baculovirus-infected Sf9 cells
Assay: Inhibition of the hydroxylation of a HIF peptide by PHD2 (time resolved fluorescence, 384-well)
Assay type: biochemical
Conditions: FLAG-tagged full length PHD2, 0.2 μM 2-oxoglutarate, 0.5 μM HIF-1α peptide, 45 minutes at room temperature

[1] = read-out: MS m/z (M + 1)+ and human HIF-PHD2 IC50

T1 sequence (Q9GZT9 whole entry): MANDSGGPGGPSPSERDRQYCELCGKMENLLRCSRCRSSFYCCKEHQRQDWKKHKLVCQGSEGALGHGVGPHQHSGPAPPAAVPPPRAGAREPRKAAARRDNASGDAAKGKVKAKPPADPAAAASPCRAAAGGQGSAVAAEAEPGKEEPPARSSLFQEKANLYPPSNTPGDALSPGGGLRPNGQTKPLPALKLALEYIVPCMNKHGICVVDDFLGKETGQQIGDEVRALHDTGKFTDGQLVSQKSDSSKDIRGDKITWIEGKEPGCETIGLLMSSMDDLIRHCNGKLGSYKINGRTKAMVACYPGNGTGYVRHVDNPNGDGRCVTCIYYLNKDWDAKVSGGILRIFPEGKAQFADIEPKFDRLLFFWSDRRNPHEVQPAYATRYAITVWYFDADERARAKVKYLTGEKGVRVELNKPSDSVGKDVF

SMILES | IC50 (read-out: Human HIF-PHD2 IC50) [nM] | IC50 [1] [nM]
O=C(O)CNC(=O)c1c(O)c2c(F)ccc3c2n(c1=O)CC(c1ccc(C(F)(F)F)cc1)O3 (single isomer, unassigned) [Example 68, 2-(8-Fluoro-7-hydroxy-5-oxo-2-(4-(trifluoromethyl)phenyl)-3,5-dihydro-2H-[1,4]oxazino[2,3,4-ij]quinoline-6-carboxamido)acetic acid] | 4.9 | –
Cc1ccc2c(O)c(C(=O)NCC(=O)O)c(=O)n3c2c1OCC3 [Example 39, 2-(7-Hydroxy-10-methyl-5-oxo-3,5-dihydro-2H-[1,4]oxazino[2,3,4-ij]quinoline-6-carboxamido)acetic acid] | 12 | –
O=C(O)CNC(=O)c1c(O)c2ccnc3c2n(c1=O)CC(c1ccc(C(F)(F)F)cc1)O3 (stereo not drawn) [Example 51, 2-(7-Hydroxy-5-oxo-2-(4-(trifluoromethyl)phenyl)-3,5-dihydro-2H-[1,4]oxazino[2,3,4-ij][1,7]naphthyridine-6-carboxamido)acetic acid] | 13 | –
NC(=O)c1cccc(-c2ccc3c(O)c(C(=O)NCC(=O)O)c(=O)n4c3c2OCC4c2ccc(C(F)(F)F)cc2)c1 (stereo not drawn) [Example 139, N-({10-(3-carbamoylphenyl)-7-hydroxy-5-oxo-3-[4-(trifluoromethyl)phenyl]-2,3-dihydro-5H-[1,4]oxazino[2,3,4-ij]quinolin-6-yl}carbonyl)glycine] | – | 14
N#Cc1ccc2c(O)c(C(=O)NCC(=O)O)c(=O)n3c2c1OC(c1ccc(C(F)(F)F)cc1)C3 (single isomer, unassigned) [Example 21, 2-(10-Cyano-7-hydroxy-5-oxo-2-(4-(trifluoromethyl)phenyl)-3,5-dihydro-2H-[1,4]oxazino[2,3,4-ij]quinoline-6-carboxamido)acetic acid] | 0.6 | –
N#Cc1ccc(C2Cn3c(=O)c(C(=O)NCC(=O)O)c(O)c4ccc(C(F)(F)F)c(c43)O2)cc1 (single isomer, unassigned) [Example 78, 2-(2-(4-cyanophenyl)-7-hydroxy-10-(trifluoromethyl)-3,5-dihydro-2H-[1,4]oxazino[2,3,4-ij]quinoline-6-carboxamido)acetic acid] | – | 7.9
Cc1cc2c3c(c1)c(O)c(C(=O)NCC(=O)O)c(=O)n3CCO2 [Example 43, 2-(7-hydroxy-9-methyl-5-oxo-3,5-dihydro-2H-[1,4]oxazino[2,3,4-ij]quinoline-6-carboxamido)acetic acid] | 24 | –
O=C(O)CNC(=O)c1c(O)c2cc(F)cc3c2n(c1=O)CC(c1ccc(C(F)(F)F)cc1)N3 (stereo not drawn) [Example 120, 2-(9-Fluoro-7-hydroxy-5-oxo-2-(4-(trifluoromethyl)phenyl)-1,2,3,5-tetrahydropyrido[1,2,3-de]quinoxaline-6-carboxamido)acetic acid] | 4.6 | –
N#Cc1ccc2c(O)c(C(=O)NCC(=O)O)c(=O)n3c2c1NC(c1cncs1)C3 (stereo not drawn) [Example 109, 2-(10-Cyano-7-hydroxy-5-oxo-2-(thiazol-5-yl)-1,2,3,5-tetrahydropyrido[1,2,3-de]quinoxaline-6-carboxamido)acetic acid] | 4.2 | –
N#Cc1ccc(C2Cn3c(=O)c(C(=O)NCC(=O)O)c(O)c4ccc(C#N)c(c43)O2)cc1 (stereo not drawn) [Example 56, 2-(10-Cyano-2-(4-cyanophenyl)-7-hydroxy-5-oxo-3,5-dihydro-2H-[1,4]oxazino[2,3,4-ij]quinoline-6-carboxamido)acetic acid] | 0.6 | –
COc1ccc2c3c1c(O)c(C(=O)NCC(=O)O)c(=O)n3CC(c1ccc(C(F)(F)F)cc1)O2 (stereo not drawn) [Example 79, 2-(7-hydroxy-8-methoxy-5-oxo-2-(4-(trifluoromethyl)phenyl)-3,5-dihydro-2H-[1,4]oxazino[2,3,4-ij]quinoline-6-carboxamido)acetic acid] | 4 | –
O=C(O)CNC(=O)c1c(O)c2cccc3c2n(c1=O)CC(c1ccc(C(F)(F)F)cc1)C3 (stereo not drawn) [Example 9, 2-(1-Hydroxy-3-oxo-6-(4-(trifluoromethyl)phenyl)-3,5,6,7-tetrahydropyrido[3,2,1-ij]quinoline-2-carboxamido)acetic acid] | 7.2 | –
CS(=O)(=O)c1ccc(C2COc3cccc4c(O)c(C(=O)NCC(=O)O)c(=O)n2c34)cc1 (stereo not drawn) [Example 183, Ammonium 2-(7-hydroxy-3-(4-(methylsulfonyl)phenyl)-5-oxo-3,5-dihydro-2H-[1,4]oxazino[2,3,4-ij]quinoline-6-carboxamido)acetate] | 15 | –
Cc1noc(C)c1-c1ccc2c(O)c(C(=O)NCC(=O)O)c(=O)n3c2c1OCC3 [Example 155, N-{[10-(3,5-dimethylisoxazol-4-yl)-7-hydroxy-5-oxo-2,3-dihydro-5H-[1,4]oxazino[2,3,4-ij]quinolin-6-yl]carbonyl}glycine] | – | 3.3
O=C(O)CNC(=O)c1c(O)c2cccc3c2n(c1=O)C(c1nccs1)CO3 (stereo not drawn) [Example 168, 2-(7-hydroxy-5-oxo-3-(thiazol-2-yl)-3,5-dihydro-2H-[1,4]oxazino[2,3,4-ij]quinoline-6-carboxamido)acetic acid] | – | 19
O=C(O)CNC(=O)c1c(O)c2c(Br)ccc3c2n(c1=O)CC(c1ccc(C(F)(F)F)cc1)O3 (stereo not drawn) [Example 11, 2-(8-Bromo-7-hydroxy-5-oxo-2-(4-(trifluoromethyl)phenyl)-3,5-dihydro-2H-[1,4]oxazino[2,3,4-ij]quinoline-6-carboxamido)acetic acid] | 2.6 | –
N#Cc1ccc(C2COc3cccc4c(O)c(C(=O)NCC(=O)O)c(=O)n2c34)cc1 (stereo not drawn) [Example 181, ammonium 2-(3-(4-cyanophenyl)-7-hydroxy-5-oxo-3,5-dihydro-2H-[1,4]oxazino[2,3,4-ij]quinoline-6-carboxamido)acetate] | – | 10
O=C(O)CNC(=O)c1c(O)c2cccc3c2n(c1=O)C(c1ccc(C(F)(F)F)cc1)CN3 (stereo not drawn) [Example 106, 2-(7-Hydroxy-5-oxo-3-(4-(trifluoromethyl)phenyl)-1,2,3,5-tetrahydropyrido[1,2,3-de]quinoxaline-6-carboxamido)acetic acid] | 27 | –
N#Cc1ccc(C2Cn3c(=O)c(C(=O)NCC(=O)O)c(O)c4cc(C#N)cc(c43)O2)cc1 (stereo not drawn) [Example 52, 2-(9-Cyano-2-(4-cyanophenyl)-7-hydroxy-5-oxo-3,5-dihydro-2H-[1,4]oxazino[2,3,4-ij]quinoline-6-carboxamido)acetic acid] | 0.5 | –
O=C(O)CNC(=O)c1c(O)c2cccc3c2n(c1=O)C(c1ccc(C(F)(F)F)cc1)CO3 (single isomer, unassigned) [Example 1a, 2-(7-Hydroxy-5-oxo-3-(4-(trifluoromethyl)phenyl)-3,5-dihydro-2H-[1,4]oxazino[2,3,4-ij]quinoline-6-carboxamido)acetic acid] | 33.7 | –
O=C(O)CNC(=O)c1c(O)c2cc(OC(F)(F)F)cc3c2n(c1=O)CC(c1ccc(C(F)(F)F)cc1)O3 (stereo not drawn) [Example 124, 2-(7-Hydroxy-5-oxo-9-(trifluoromethoxy)-2-(4-(trifluoromethyl)phenyl)-3,5-dihydro-2H-[1,4]oxazino[2,3,4-ij]quinoline-6-carboxamido)acetic acid] | 9.6 | –
O=C(O)CNC(=O)c1c(O)c2cc(-c3ccn[nH]3)cc3c2n(c1=O)C(c1ccc(C(F)(F)F)cc1)CO3 (stereo not drawn) [Example 185, 2-(7-Hydroxy-5-oxo-9-(1H-pyrazol-5-yl)-3-(4-(trifluoromethyl)phenyl)-3,5-dihydro-2H-[1,4]oxazino[2,3,4-ij]quinoline-6-carboxamido)acetic acid] | 12 | –
O=C(O)CNC(=O)c1c(O)c2cccc3c2n(c1=O)CC(c1ccc(C(F)(F)F)cc1)N3 (stereo not drawn) [Example 64, 2-(7-Hydroxy-5-oxo-2-(4-(trifluoromethyl)phenyl)-1,2,3,5-tetrahydropyrido[1,2,3-de]quinoxaline-6-carboxamido)acetic acid] | 4.5 | –
O=C(O)CNC(=O)c1c(O)c2c(F)ccc3c2n(c1=O)C(c1cncs1)CO3 (stereo not drawn) [Example 172, 2-(8-fluoro-7-hydroxy-5-oxo-3-(thiazol-5-yl)-3,5-dihydro-2H-[1,4]oxazino[2,3,4-ij]quinoline-6-carboxamido)acetic acid] | – | 7.3
N#Cc1ccc2c(O)c(C(=O)NCC(=O)O)c(=O)n3c2c1OCC3Cc1ccc(C(F)(F)F)cc1 (stereo not drawn) [Example 32, 2-(10-Cyano-7-hydroxy-5-oxo-3-(4-(trifluoromethyl)benzyl)-3,5-dihydro-2H-[1,4]oxazino[2,3,4-ij]quinoline-6-carboxamido)acetic acid] | 1.3 | –
CN1c2cccc3c(O)c(C(=O)NCC(=O)O)c(=O)n(c23)CC1c1cncs1 (stereo not drawn) [Example 112, 2-(7-Hydroxy-1-methyl-5-oxo-2-(thiazol-5-yl)-1,2,3,5-tetrahydropyrido[1,2,3-de]quinoxaline-6-carboxamido)acetic acid] | 29 | –
O=C(O)CNC(=O)c1c(O)c2ccc(-c3ccn[nH]3)c3c2n(c1=O)C(c1ccc(C(F)(F)F)cc1)CO3 (stereo not drawn) [Example 140, 2-(7-hydroxy-5-oxo-10-(1H-pyrazol-5-yl)-3-(4-(trifluoromethyl)phenyl)-3,5-dihydro-2H-[1,4]oxazino[2,3,4-ij]quinoline-6-carboxamido)acetic acid] | – | 11
O=C(O)CNC(=O)c1c(O)c2cc(Cl)cc3c2n(c1=O)C(c1ccc(C(F)(F)F)cc1)CO3 (stereo not drawn) [Example 166, 2-(9-chloro-7-hydroxy-5-oxo-3-(4-(trifluoromethyl)phenyl)-3,5-dihydro-2H-[1,4]oxazino[2,3,4-ij]quinoline-6-carboxamido)acetic acid] | – | 16
O=C(O)CNC(=O)c1c(O)c2c(F)ccc3c2n(c1=O)CC(c1ccc(C(F)(F)F)cc1)O3 (single isomer, unassigned) [Example 69, 2-(8-fluoro-7-hydroxy-5-oxo-2-(4-(trifluoromethyl)phenyl)-3,5-dihydro-2H-[1,4]oxazino[2,3,4-ij]quinoline-6-carboxamido)acetic acid] | – | 3.3
Cc1ccc2c3c1c(O)c(C(=O)NCC(=O)O)c(=O)n3C(Cc1ccc(C(F)(F)F)cc1)CO2 (stereo not drawn) [Example 30, 2-(7-Hydroxy-8-methyl-5-oxo-3-(4-(trifluoromethyl)benzyl)-3,5-dihydro-2H-[1,4]oxazino[2,3,4-ij]quinoline-6-carboxamido)acetic acid] | 39 | –
